# Test results as given in patent US20260207564A1, “DOSAGE REGIME OF ORFORGLIPRON FOR TREATING A SUBJECT WITH TYPE 2 DIABETES (T2D), OBESITY, OR OVERWEIGHT WITH AT LEAST ONE WEIGHT RELATED COMORBIDITY” (Eli Lilly and Company, priority 2022, published 2026).
# Where two headings read alike, the source gives them in different places.
# Legend:
# [1] = Phase 1 food effect study B, 16 mg daily dose reached by weekly escalation, healthy adults (Example 6); type: in vivo, human; details: for AUC(0-t): read-out: AUC(0-24), geometric LS mean (geometric CV %); for Cmax: read-out: Cmax, geometric LS mean (geometric CV %)
# [2] = Phase 1 food effect study A, single 3 mg dose, healthy adults (Example 6); type: in vivo, human; details: for AUC(0-inf) / Cmax / half-life: human, in vivo, oral, 3 mg; for AUC(0-inf): read-out: AUC(0-∞), geometric LS mean (geometric CV %); for Cmax: read-out: Cmax, geometric LS mean (geometric CV %); for half-life: read-out: T1/2, geometric mean (range) (converted)
# [3] = type: in vivo, human; details: for percentage of patients who attained an HbA1c of 7% or less: 26 weeks
# Experimental: Two Phase 2 studies have evaluated the safety and efficacy of Compound 1a for the treatment of T2D and another for treatment of obesity or overweight with at least one weight related comorbidity.
# The 36 and 45 mg cohorts were subdivided in a 36 mg-1 and 36 mg-2 as well as 45 mg-1 and 45 mg-2 respectively, as different starting doses, dose escalations and dose escalation steps were investigated in these subgroup cohorts (FIG. 4).
# Eligible male or female participants were >18 years of age with T2D with a HbA1c 7.0% to 10.5% and a body mass index (BMI) of ≥23 kg/m2, treated with diet and exercise alone or with a stable dose of metformin and with a stable body weight (≤5% body weight gain and/or loss) for at least 3 months prior to screening/Visit 1.
# The study period included a 2-week screening/lead in period and a 26-week treatment period. During the treatment period, doses were escalated for all treatment groups. The dose escalation period ranged from 4 to 12 weeks depending on dose group. The initial dose was 2 or 3 mg followed by additional escalation steps depending on assigned cohort (FIG. 4). […] All participants were provided healthy eating and exercise education by study personnel throughout the trial.
# Key Safety and tolerability endpoints included the frequency of patient- and investigator-reported adverse events, rate and incidence of hypoglycaemia events (glucose <70 mg/dL [3.9 mmol/L] and ≥54 mg/dL [3.0 mmol/L], or glucose <54 mg/dL [3.0 mmol/L]), and change in safety laboratory parameters, electrocardiogram, and vital signs.
# The estimand used for efficacy analyses was an “efficacy estimand”, representing the average treatment effect for the randomized population if the treatment was administered as intended, thus including data from all randomized participants who received at least one dose of study drug and excluding data after permanent discontinuation of study drug. All tests of treatment effects were conducted at a 2-sided alpha level of 0.05 without adjustment for multiple comparisons, and 2-sided 95% CIs were calculated.
# Safety analyses were conducted by comparing safety of OFG with placebo and with dulaglutide irrespective of adherence to study drug. The safety analyses were conducted using the safety analysis set, which includes all randomized participants who received at least one dose of study drug. The results were presented in summary statistics, point estimates, and 95% confidence intervals along with p-values for treatment comparisons.
# [4] = human, in vivo, oral, 16 mg, STUDY B - 16 mg (with titration), Fasted
# [5] = human, in vivo, oral, 16 mg, STUDY B - 16 mg (with titration), Fed
molecule,measurement,setting,value
"Cc1cc(-n2nc3c(c2-n2ccn(-c4ccc5c(cnn5C)c4F)c2=O)[C@H](C)N(C(=O)c2cc4cc([C@H]5CCOC(C)(C)C5)ccc4n2[C@@]2(c4noc(=O)[nH]4)C[C@@H]2C)CC3)cc(C)c1F [OFG, 3-[(1S,2S)-1-[5-[(4S)-2,2-dimethyloxan-4-yl]-2-[(4S)-2-(4-fluoro-3,5-dimethylphenyl)-3-[3-(4-fluoro-1-methylindazol-5-yl)-2-oxoimidazol-1-yl]-4-methyl-6,7-dihydro-4H-pyrazolo[4,3-c]pyridine-5-carbonyl]indol-1-yl]-2-methylcyclopropyl]-4H-1,2,4-oxadiazol-5-one, 0.5 Ca hydrate]","Tmax, median (range)","[1]; STUDY B - 16 mg (with titration), Fasted",8.0 (4.0-16.0) h
same,"Tmax, median (range)","[1]; STUDY B - 16 mg (with titration), Fed",8.0 (4.0-24.0) h
same,AUC(0-t),[1]; [4],1200 ng·h/mL
same,Cmax,[1]; [4],80.5 ng/mL
same,half-life,"[1]; human, in vivo, oral, 16 mg, STUDY B - 16 mg (with titration), Fasted, read-out: T1/2, geometric mean (range) (converted)",26 h
same,AUC(0-t),[1]; [5],1050 ng·h/mL
same,Cmax,[1]; [5],67.5 ng/mL
same,TEAE decreased appetite,[1]; study B,69.7%
same,TEAE nausea,[1]; study B,48.5%
same,TEAE vomiting,[1]; study B,45.5%
same,TEAEs occurrence over dosing,[1]; study B,occurred most often with the starting dose and decreased with dose escalation
same,Tmax and T½ with or without food,[1]; study B,similar
same,treatment emergent adverse events (TEAEs) severity,[1]; study B,mild
same,AUC(0-24) lower when administered with food,"[1]; study B, 16 mg daily dose",18%
same,Cmax lower in the fed state,"[1]; study B, 16 mg daily dose, fed vs fasted",21%
same,"Tmax, median (range)","[2]; STUDY A - 3 mg, Fasted",8.0 (4.0-24.0) h
same,AUC(0-inf),"[2]; STUDY A - 3 mg, Fasted",362 ng·h/mL
same,Cmax,"[2]; STUDY A - 3 mg, Fasted",13.4 ng/mL
same,half-life,"[2]; STUDY A - 3 mg, Fasted",29.5 h
same,AUC(0-inf),"[2]; STUDY A - 3 mg, Fed",260 ng·h/mL
same,Cmax,"[2]; STUDY A - 3 mg, Fed",10.1 ng/mL
same,half-life,"[2]; STUDY A - 3 mg, Fed",27.9 h
same,Tmax and T½ with or without food,[2]; study A,similar
same,treatment emergent adverse events (TEAEs) severity,[2]; study A,mild
same,AUC(0-∞) lower when administered with food,"[2]; study A, single 3 mg dose",24%
same,Cmax lower in the fed state,"[2]; study A, single 3 mg dose, fed vs fasted",23%
same,percentage of patients who attained an HbA1c of 7% or less,[3]; across OFG dose groups,65.2% to 95.8
same,most common adverse events,[3]; in vivo,"gastrointestinal, mild to moderate in severity"
same,pulse rate changes from baseline,[3]; in vivo,+3.0 to +6.1 bpm
same,systolic or diastolic blood pressure compared with dulaglutide or placebo,[3]; in vivo,no statistically significant differences
same,fasting glucose,[3]; versus placebo,significant improvements versus placebo
same,mean changes from baseline in body weight,"[3]; week 26, OFG 3 mg",-3.7 kg
same,body weight ETD versus dulaglutide,"[3]; week 26, OFG 12 mg",-2.6 kg
same,body weight ETD versus placebo,"[3]; week 26, OFG 12 mg",-4.3 kg
same,mean changes from baseline in body weight,"[3]; week 26, OFG 12 mg",-6.5 kg
same,body weight ETD versus dulaglutide,"[3]; week 26, OFG 24 mg",-5.9 kg
same,body weight ETD versus placebo,"[3]; week 26, OFG 24 mg",-7.6 kg
same,mean changes from baseline in body weight,"[3]; week 26, OFG 24 mg",-9.7 kg
same,body weight ETD versus dulaglutide,"[3]; week 26, OFG 36 mg",-5.7 kg
same,body weight ETD versus placebo,"[3]; week 26, OFG 36 mg",-7.4 kg
same,mean changes from baseline in body weight,"[3]; week 26, OFG 36 mg",-9.5 kg
same,body weight ETD versus dulaglutide,"[3]; week 26, OFG 45 mg",-6.2 kg
same,body weight ETD versus placebo,"[3]; week 26, OFG 45 mg",-7.9 kg
same,mean changes from baseline in body weight,"[3]; week 26, OFG 45 mg",-10.1 kg
same,mean change in HbA1c from baseline,"[3]; week 26, across OFG dose groups",−0.77% to −1.67
dulaglutide [reference compound],percentage of patients who attained an HbA1c of 7% or less,[3]; dulaglutide 1.5 mg,64.1%
same,pulse rate changes from baseline,[3]; in vivo,+2.3 bpm
same,mean changes from baseline in body weight,"[3]; week 26, dulaglutide",-3.9 kg
same,mean change in HbA1c from baseline,"[3]; week 26, dulaglutide 1.5 mg",−1.1%
